“And” between values parts separate entries of the source, which are not always exact repeats. Equal values may be shown once.
What was measured:
Nrf2/ARE = Nrf2/ARE binding activity, ELISA (TransAM Nrf2 Kit); assay type: cell-based, human; conditions: 6 h; for Nrf2/ARE binding activity: 5 μM; for Nrf2/ARE effect compared to DMF: compounds and DMF at 5 μM
Description: In light of these findings, 4 and 5 emerged as the most promising to be further studied regarding their effect on the Nrf2/ARE pathway. […] The maximum ratio between nuclear and cytosolic Nrf2 levels was detected after a 3 h treatment for both compounds, while a slight reduction was observed after 6 h.
Figure 5 Effects of compounds 4 and 5 on the Nrf2/ARE signaling pathway (A and B) and NQO1 gene expression (C) in SH-SY5Y cells. (A) Cells were treated with compounds 4 and 5 (5 μM) for different times (1, 3, and 6 h). Translocation of Nrf2 from the cytosol to the nucleus was evaluated by Western blotting. Data are expressed as a ratio between nuclear Nrf2 and cytoplasmic Nrf2 levels and reported as mean ± SEM of at least three independent experiments. (B) Cells were treated with compounds 4 and 5 (5 μM) and DMF (5 μM) for 6 h. The Nrf2/ARE binding activity was determined by an ELISA assay. Results are expressed as fold increase versus untreated cells and reported as mean ± SEM of at least three independent experiments (** p < 0.01 and * p < 0.05 versus untreated cells at the t-test). (C) Cells were treated with compounds 4 and 5 (5 μM) for different times (6, 12, and 24 h). The NQO1 expression was determined by RT-PCR. Results are expressed as the relative normalized expression and reported as mean ± SEM of at least three independent experiments (*** p < 0.001 versus untreated cells at one-way ANOVA with the Dunnett post hoc test).
The levels of active Nrf2 protein were determined on the nuclear extracts (10 μg, see above) by using the DNA-binding ELISA TransAM Nrf2 Kit (Active Motif), according to the manufacturer’s guidelines. In detail, the kit comprises a primary antibody able to recognize an epitope on Nrf2 protein upon ARE binding. In the treated cells, the amount of active Nrf2 protein is expressed as a fold increase in comparison to the corresponding untreated cells.

[1] = test system: C. elegans BY250 [vtIs7 (Pdat-1:GFP)] CEP neurons; assay: 6-OHDA-induced neurodegeneration of CEP neurons in the C. elegans model of PD; assay type: in vivo, Caenorhabditis elegans; conditions: cotreatment 5 μM with 6-OHDA 5 mM for 30 min, scored after 72 h
Description: The nematode Caenorhabditis elegans (C. elegans) has been increasingly employed as a genetically tractable in vivo model to study the molecular mechanisms involved in several NDDs due to a short life cycle, fast reproduction, and a highly conserved inheritance (genetic basis).[35] This invertebrate model offers the opportunity to take advantage of the significant conservation of genes and metabolic pathways common to both invertebrates and humans. At the neuronal level, the adult wild-type C. elegans organism contains only eight DA neurons that repeat the features of DA neurons of mammalian, making it possible to simplify the investigations considerably. In the transgenic BY250 [vtIs7 (Pdat-1:GFP)] strain, six DA neurons in the head, namely the four sensory cephalic (CEP) and the two anterior deirid (ADE) neurons, express the green fluorescent protein (GFP) and can be clearly visualized by fluorescence microscopy analysis and thus scored over time.[36] Indeed, in this model, investigations of DA neurons degeneration in vivo are feasible through a first exposition of the nematode to PD-inducing toxin, namely 6-OHDA, followed by direct visualization of the GFP-labeled DA neurons.[37] It is thus possible to screen small molecules for their anti-PD potential, in terms of rescue of the DA neurodegeneration phenotype manifested upon neurotoxin exposure, through visualization and scoring of the alterations of CEP neuron count or neuronal morphology. […] This effect makes it possible the identification of neuroprotective agents with the ability to activate Nrf2 through the inhibition of GSK-3.[38] The curcumin-DEF hybrids 4 and 5 were investigated in the above C. elegans model for their protective effects on 6-OHDA-induced degeneration of a subclass of DA neurons. Animals were incubated with 5 μM concentration of 4 and 5, in the presence of 5 mM of 6-OHDA, for 30 min. After 72 h, the animals were studied by examining the four CEP neurons. Degenerating CEP neurons were morphologically analyzed and quantified (Figure 8). We recorded that in animals treated with 6-OHDA, 68% of CEP neurons degenerated.
Figure 8 Effects of 4 and 5 on 6-OHDA-induced neurodegeneration in C. elegans. Animals were treated with 4 or 5 (5 μM) in the presence of 6-OHDA (5 mM) for 30 min. At the end of incubation, treated animals were placed on fresh agar plates for 72 h and then visualized as described in the Materials and Methods section. (A) In nontreated vtIs7 [pdat-1::GFP] transgenic animals, dopaminergic neurons express GFP, with two of the four CEP cell bodies (white arrows) and relative dendrites (arrowheads) visible in this focal plane in the head. (B) 6-OHDA treatment causes the degeneration of CEP dendrites (empty arrowheads) and two cell bodies (gray arrows), in treated animals. The other two CEP neurons are not visible anymore. (C) Compound 5 cotreatment partially rescues the 6-OHDA-induced toxic effects, with degeneration of one of the CEP dendrites (empty arrowhead) but not the other (arrowhead) and with one CEP cell body still viable (white arrow) and one dying (gray arrow) in this focal plane. […] ADE neurons, which are less affected by 6-OHDA treatment, are also visible but were not scored (asterisks). (D) Quantification of degenerating CEP neurons. Data are expressed as percentages of degenerating neurons and reported as mean ± SEM of at least three independent experiments. […]

GSK-3β = GSK-3β (Homo sapiens, UniProt P49841); assay: GSK-3β inhibition, luminescent kinase assay (Kinase-Glo); conditions: for IC50: GSK-3β inhibition IC50 (μM) ± SEM, human recombinant enzyme, luminescence method
GSK-3β, sequence (P49841 whole entry): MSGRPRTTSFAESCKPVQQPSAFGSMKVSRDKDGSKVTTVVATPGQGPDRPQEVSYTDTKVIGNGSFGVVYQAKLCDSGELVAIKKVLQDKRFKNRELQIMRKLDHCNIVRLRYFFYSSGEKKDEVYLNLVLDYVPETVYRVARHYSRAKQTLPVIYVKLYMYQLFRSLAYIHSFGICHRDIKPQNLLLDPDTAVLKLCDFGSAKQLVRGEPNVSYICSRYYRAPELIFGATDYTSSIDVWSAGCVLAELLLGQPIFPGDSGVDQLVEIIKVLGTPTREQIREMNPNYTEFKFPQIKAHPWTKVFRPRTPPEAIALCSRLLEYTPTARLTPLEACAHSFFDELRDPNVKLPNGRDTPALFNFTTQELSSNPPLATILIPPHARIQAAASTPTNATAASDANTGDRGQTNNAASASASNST
Description: A kinetic study was performed in which the concentrations of both ATP and tested compounds were varied, while the concentration of the substrate was kept constant.
GSK-3β inhibition . Kinase-Glo assays (Promega Biotech Iberica, SL) were performed in assay buffer using
black 96-well plates. In a typical assay, 10 µl (10 µM) of test compound (dissolved in DMSO at 1 mM concentration and diluted in advance in assa y buffer to the desired concentration) and 10 µL (20 ng) of
enzyme were added to each well followed by 20 µl of assay buffer containing 50 µM substrate and 2 µM ATP.
After 30 -min incu bation at 30 °C
the enzymatic reaction was stopped with 40 µL of Kinase -Glo reagent. Glow -type luminescence was recorded
after 10 min using a FLUOstar Optima (BMG Labtechnologies GmbH, Offenburg Germany) multimode reader.
The activity is proportional to th e difference in the total and consumed ATP. The inhibitory activities were
calculated on the basis of maximal activities measured in the absence of inhibitor. The IC 50 was defined as the concentration of each compound that reduces a 50 % the enzymatic activity with respect to that without
inhibitors. Five different concentrations by duplicate were used to determine the dose/response curve.

Structure (SMILES): CCOC(=O)/C=C/C(C(=O)/C=C/c1ccc(OC)cc1)=C(O)\C=C\c1ccc(OC)cc1 [Compound 4, Ethyl (2E,4Z,6E)-5-Hydroxy-7-(4-methoxyphenyl)-4-((E)-3-(4-methoxyphenyl)acryloyl)hepta-2,4,6-trienoate]
- Nrf2/ARE binding activity (Nrf2/ARE): increase in Nrf2/ARE binding activity
- Nrf2/ARE effect compared to DMF (Nrf2/ARE): superior effects to DMF
- degenerating CEP neurons [1]: 67%
- rescue of the 6-OHDA-induced degeneration phenotype [1]: no rescue
- IC50 (GSK-3β): > 10 µM
- inhibition at 10 µM (GSK-3β; read-out: GSK-3β inhibition, inhibition (%)): 40%

Structure (SMILES): CCOC(=O)/C=C/C(C(=O)/C=C/c1ccc(OC)cc1)=C(O)\C=C\c1ccc(OCc2ccccc2)cc1 [Compound 5, Ethyl (2E,4Z,6E)-7-(4-(Benzyloxy)phenyl)-5-hydroxy-4-((E)-3-(4-methoxyphenyl)acryloyl)hepta-2,4,6-trienoate]
- Nrf2/ARE binding activity (Nrf2/ARE): increase in Nrf2/ARE binding activity
- Nrf2/ARE effect compared to DMF (Nrf2/ARE): superior effects to DMF
- degenerating CEP neurons [1]: 55%
- rescue of the 6-OHDA-induced degeneration phenotype [1]: partial rescue
- IC50 (GSK-3β): 8.4 µM and 8.39 µM
